Earlier results on 1 substance are cited in patent publication US20030129616A1, “Use of a mutation in the gene for the beta3-subunit of human g-protein” (priority 2000, published 2003).

In this data set the test system is bladder tumor cells.

pertussis toxin: the “migration of bladder tumor cells” value is “greatly inhibited”.
